# Test results published in patent US20220071955A1, “Methods of Treatment, Prevention and Diagnosis” (The Walter and Eliza Hall Institute of Medical Research, priority 2018, published 2022).
# Entries after “also recorded” stand apart in the source; their conditions may differ.
# Experiments:
# [1] = system: human iPSC-derived motor neurons; assay: IFNB1 and TNF gene induction (qPCR) in human iPSC-derived motor neurons; type: cell-based; settings: motor neurons from healthy controls and ALS patients with TDP-43 mutations
# Text: (§1) Total RNA was isolated using the ISOLATE II RNA Mini Kit (Bioline) as per manufacturers' instructions and reverse transcribed using oligo(dT) nucleotides. Primers for cytokines, mitochondrial DNA and housekeeping genes were used as described previously (White et al., 2014; De Nardo et al., 2014). Others were designed using the Integrated DNA Technologies online tool as follows: hsIFNB1 FW, 5′-TGTCGCCTACTACCTGTTGTGC-3′ (SEQ ID NO:17); hsIFNB1 RV, 5′-AACTGCAACCTTTCGAAGCC-3′ (SEQ ID NO:18); mmIfnb1 FW: 5′-CCAGCTCCAAGAAAGGACGA-3′ (SEQ ID NO:19); mmIfnb1 RV: 5′-TGGATGGCAAAGGCAGTGTA-3′ (SEQ ID NO:20); mmIfna6 FW: 5′-GCTTTCCTGATGGTTTTGGTG-3′ (SEQ ID NO:21); mmIfna6 RV: 5′-AGGCTTTCTTGTTCCTGAGG-3′ (SEQ ID NO:22). Quantitative real-time PCR was performed using SYBR Green/ROX qPCR Master Mix (Thermo Scientific) on a ViiA 7 Real-Time PCR system (Thermo Scientific).
# (§2) The established human iPSC lines used in this study included two controls (NCRM-1 and NCRM-5) from the National Institute of Neurological Disorders and Stroke, one control and one ALS patient from Alessandro Rosa, one ALS patient from RIKEN and one ALS patient (TALSTDP-47.10) from the Target ALS Foundation. All iPSCs were maintained on Matrigel (Corning, 354277)-coated 6-well plates in mTeSR1 (STEMCell Technologies, 85850) containing 1× Primocin (Invivogen, ant-pm-1) and passaged 1:6 using ReLeSR (STEMCell Technologies, 05872) with ROCK inhibitor Y-27632 (STEMCell Technologies, 72304) for the first 24 hours. The medium was replaced daily. Cells were cyropreserved in mTeSR1/10% DMSO.
# (§3) Differentiation of iPSCs into ChAT^+ motor neurons was performed as described previously (Du et al., 2015) All medium and reagents from Gibco unless otherwise stated.
# (§4) Human iPSCs were cultured in a chemically defined Neural Medium: DMEM/F12:Neurobasal (1:1) supplemented with 0.5×N2, 0.5×B27, 0.1 mM L-ascorbic acid (Sigma), 1× Glutamax and 1× Primocin (Invivogen) containing 3 μM CHIR99021 (STEMCell Technologies, 72054), 2 μM Dorsomorphin (STEMCell Technologies, 72102) and 2 μM SB431542 (STEMCell Technologies, 72234) for 6 days, and the medium was changed every other day.
# The NEPs were dissociated with ReLeSR and cultured 1:6 on Matrigel-coated plates in the Neural Medium containing 1 μM CHIR99021, 2 μM Dorsomorphin and 2 μM SB431542 for 6 days. Y-27632 was used for the first 24 hours. The medium was changed every other day. At this stage of differentiation, MNPs were either expanded in the Neural Medium containing 3 μM CHIR99021, 2 μM Dorsomorphin, 2 μM SB431542, 0.1 μM all-trans retinoic acid (Sigma, R2500), 0.5 μM Purmorphamine (STEMCell Technologies, 72204) and 0.5 mM Valporic Acid (STEMCell Technologies, 72292) prior to MN diffrenertiation or cryopreserved in DMEM/F12 containing 10% FBS and 10% DMSO.
# The MNPs were dissociated with ReLeSR and cultured on Matrigel-coated plates in the Neural Medium containing 0.5 μM all-trans RA and 0.1 μM Pur for 6 days into premature MNX1^+ MN. Y-27632 was used for the first 24 hours and the medium was replaced every other day. Subsequently, cells were detached with Accutase (Merck Millipore, SCR005) to generate single cell suspension and matured in the medium supplemented with 0.1 μM Compound E (STEMCell Technologies, 73954) for 10 days into ChAT^+ MNs. The medium was replaced every other day. Cells were plated in Matrigel-coated 8-well chamber slides (iBidi, 80826) to confirm cellular markers of MNs, including MNX1 (Merck Millipore, ABN174) and ChAT (Merck Millipore, […]) along with βIII-Tubulin (Promega, clone 5G8, G7121) staining using an inverted SP8 confocal microscopy (Leica).
# [2] = system: ALS patient iPSC-derived motor neurons; assay: LDH cytotoxicity assay and brightfield imaging of iPSC-derived motor neurons; type: cell-based, human; settings: H-151 1 μM, 4-week treatment
# Text: as §2, §3
# as §4, with “day. […]” for “day.”
# [3] = system: TDP-43 overexpressing Thp1 cells; assay: IFNB1 and TNF induction (qPCR) in TDP-43 overexpressing Thp1 cells; type: cell-based, human; settings: Thp1 cells overexpressing TDP-43 (WT or Q331K)
# Procedure: (§5) Immortalised mouse embryonic fibroblasts (MEFs) lacking MAVS, PKR, cGAS, STING, Bax/Bak, Mcl1 or WT control were maintained in DME/KELSO medium (in-house DMEM containing 40 mM sodium bicarbonate, 1 mM HEPES, 0.0135 mM folic acid, 0.24 mM L-asparagine, 0.55 mM L-arginine, 1×Pen/Strep and 22.2 mM D-glucose) supplemented with 10% FBS (Sigma-Aldrich). Transfection of MEFs was performed using FuGENE HD (Promega). AGK−/− (gift from D. Stojanovski) and WT HEK293T cells were maintained in DMEM supplemented with 10% FBS, 100 U/mL Penicillin and 100 μg/mL Streptomycin. Lipofectamine 2000 (Life Technologies) was used to transfect HEK293T cells according to manufacturers' instructions. Human monocytic THP-1 cells were grown in RPMI-1640 with 10% FBS, 100 U/mL Penicillin and 100 μg/mL Streptomycin. The above cell culture was conducted at 37° C. in a humidified atmosphere with 10% CO2. […] The depletion was analysed using real-time qPCR to measure expression of mitochondrial DNA genes and nuclear genes (see Quantitative real-time PCR below).
# as §1
# Cytokine expression from qPCR is represented as gene expression relative to Hprt expression as δCt method. Where indicated, relative gene expression in TDP-43 WT or mutant overexpressing cells was further normalised to expression in vector control transfected/overexpressed cells of the same genotype in the same experiment and represented as fold change. Data are typically mean±s.e.m and analysed by t-test between two groups or one- or two-way ANOVA followed by a Sidak or Dunnett multiple comparison test as appropriate. GraphPad Prism 7 was used for all charts and statistical analyses. A P values <0.05 was considered as significant.
# Finally, to determine if pharmacological blockade of the cGAS-STING pathway is feasible, recently described inhibitors of cGAS (RU.521, described in Vincent et al., 2017) and STING (H-151 described in Haag et al) were tested. […]
# [4] = system: TDP-43 mutant mice; assay: Rotarod test in TDP-43 mutant mice with established disease; type: in vivo, mouse; settings: H-151 (3.75 mM) i.p. every the other day for 4 weeks from 120 days of age
# [5] = system: 293T cells; assay: Ifnb1 gene expression induced by TDP-43 (qPCR); type: cell-based; settings: CsA 25 μM
# Procedure: as §5
# Total RNA was isolated using the ISOLATE II RNA Mini Kit (Bioline) as per manufacturers' instructions and reverse transcribed using oligo(dT) nucleotides. […] Quantitative real-time PCR was performed using SYBR Green/ROX qPCR Master Mix (Thermo Scientific) on a ViiA 7 Real-Time PCR system (Thermo Scientific).
# [6] = system: MEFs; assay: Super-resolution confocal microscopy of TDP-43-mediated DNA relocation from mitochondria into the cytoplasm; type: cell-based, mouse; settings: CsA 25 μM
# Procedure: MEF cell lines expressing doxycycline-induced Flagged TDP-43 were seeded onto glass coverslips (18 mm×18 mm, thickness 1½, Zeiss) for indicated times and prepared for imaging as previously described (McArthur et al., 2018). In brief, cells were fixed, blocked and incubated overnight at 4° C. with primary antibodies as follows: anti-Flag (In-house, 9H1), anti-DNA (ProGen, AC-30-10) and anti-TOM20 (Santa Cruz Biotech, sc-11415) in blocking buffer. Following two washes in PBS and an one-hour incubation with secondary antibodies [goat anti-rabbit AF647 (A21245), goat anti-mouse AF488 (A11001 and goat anti-rat AF568, A11077) from Life Technologies], coverslips were mounted onto the microscopy slide using Prolong Diamond Antifade Mountant (ThermoFisher Scientific). Three color imaging was performed on the OMX-SR system (GE Healthcare) using a 60 Å˜1.42 NA oil immersion lens (Olympus).
Molecule,IFNB1 induction [3],TNF induction [3],IFNB1 gene induction ([1]; ROS inhibitors 0.1-1 μM),TNF gene induction ([1]; ROS inhibitors 0.1-1 μM),also measured
CCc1ccc(NC(=O)Nc2c[nH]c3ccccc23)cc1 [H-151],prevent,prevent,,,"IFNB1 gene induction ([1]; H-151 1 μM): prevent; TNF gene induction ([1]; H-151 1 μM): prevent; ALS-associated cytotoxicity (LDH, imaging) [2]: mitigates ALS-associated cytotoxicity; latency to fall in a rotarod test [4]: significantly improved"
COC1=C(OC)C(=O)C(CCCCCCCCCC[P+](c2ccccc2)(c2ccccc2)c2ccccc2)=C(C)C1=O [MitoQ],,,prevent,prevent,
CC1(C)CC(NC(=O)C[P+](c2ccccc2)(c2ccccc2)c2ccccc2)CC(C)(C)N1[O] [MitoTEMPO],,,prevent,prevent,
Cc1nn(-c2nc3ccc(Cl)c(Cl)c3[nH]2)c(O)c1C1OC(=O)c2ccccc21 (stereo not shown) [RU.521],prevent,prevent,,,IFNB1 gene induction ([1]; RU.521 10 μM): prevent; TNF gene induction ([1]; RU.521 10 μM): prevent
cyclosporin A [CsA],,,,,Ifnb1 gene expression induced by TDP-43 [5]: prevents; TDP-43-mediated DNA relocation from mitochondria into the cytoplasm [6]: prevented mtDNA leakage into the cytoplasm; also recorded: significantly reduced
